Experiments:
[1] = system: reverse transcriptase from HIV I; conditions: literature and own experiments, cf. Table 1; cited from earlier work
HIV = conditions: Antiviral Res. 7 [1987], 361; cited from earlier work
[2] = background statement; may induce hemorrhages; cited from earlier work
[3] = system: reverse transcriptase of Schmidt-Ruppin D (SR-D) virus; conditions: German Laid-Open Application DOS No. 3,601,136; cited from earlier work
[4] = system: reverse transcriptase from HIV I; test: Enzyme test with reverse transcriptase from HIV I; type: biochemical; conditions: 50 μg/ml substance; 120 minutes at 37° C.; poly(rA)/oligo(dT)15 matrix, 3H-dTTP
Procedure: I. Enzyme test with reverse transcriptase from HIV I
In the model system described below, the activity of the reverse transcriptase is determined in the presence of an inhibitor, essentially according to Hansen et al. (J. Biol. Chem. 262 [1987], 12393).
The enzyme test has a total volume of 50 μl and contains the following components: 50 mM tris-HCl pH 7.8, 80 mM KCl, 8 mM MgCl2 and 1 mM DTT. This system contains the synthetic polymer poly(rA)/oligo (dT)15 (Boehringer Mannheim) as a matrix, in a concentration of 1 mg/ml. This matrix consists of a synthetic RNA having a length of 100-200 nucleotides,to which short DNA primers having a length of 15 nucleotides are bonded. The DNA primers serve as starting points for the reverse transcriptase. […]
The DNA bound to the exchanger is dried under an infrared lamp, after which the activity is determined by liquid scintillation measurement. The unspecific background is the radioactivity bound to the DEAE filter in the absence of reverse transcriptase in the method described above. […]
The activity of the reverse transcriptase in the presence of a potential inhibitor is expressed as a percentage of the activity in the absence of an inhibitor; or the inhibitory action of a substance (%) is defined as 100% minus the activity in percent.

Substance | inhibitory action on reverse transcriptase of HIV I (in words) [1] | inhibition of HIV replication in vitro (HIV) | anticoagulant properties [2] | inhibition of reverse transcriptase of SR-D virus [3] | Inhibition % [4]
heparin [Commercial heparin] | could not, however, be confirmed | selective inhibitor of HIV replication in vitro | has anticoagulant properties | inhibits reverse transcriptase | 
heparin [Unfractionated heparin] |  |  |  |  | 0%

Reference: US4966894A, “Polysulfated heparins for treating diseases caused by retroviruses” (BASF Aktiengesellschaft, priority 1987, dated 1990)
